Each block holds one compound with its values, some of them ahead of it.
Legend:
[1] = target: Glutamate NMDA receptor (Rattus norvegicus) (UniProt P35439+Q00959+Q00960+Q00961+Q62645+Q8VHN2+Q9R1M7); test: NMDAAGSI/RA Eurofins SafetyScreen44 (BI); settings: filed as agonist, Compound concentration 10.0 uM
[2] = target: Cannabinoid receptor 1 (Homo sapiens) (UniProt P21554); test: CB1 Eurofins SafetyScreen44 (BI); settings: Compound concentration 10.0 uM
[3] = target: Sodium-dependent noradrenaline transporter (Homo sapiens) (UniProt P23975); settings: Compound concentration 10.0 uM
Sequence of Sodium-dependent noradrenaline transporter (Homo sapiens) (P23975 whole entry): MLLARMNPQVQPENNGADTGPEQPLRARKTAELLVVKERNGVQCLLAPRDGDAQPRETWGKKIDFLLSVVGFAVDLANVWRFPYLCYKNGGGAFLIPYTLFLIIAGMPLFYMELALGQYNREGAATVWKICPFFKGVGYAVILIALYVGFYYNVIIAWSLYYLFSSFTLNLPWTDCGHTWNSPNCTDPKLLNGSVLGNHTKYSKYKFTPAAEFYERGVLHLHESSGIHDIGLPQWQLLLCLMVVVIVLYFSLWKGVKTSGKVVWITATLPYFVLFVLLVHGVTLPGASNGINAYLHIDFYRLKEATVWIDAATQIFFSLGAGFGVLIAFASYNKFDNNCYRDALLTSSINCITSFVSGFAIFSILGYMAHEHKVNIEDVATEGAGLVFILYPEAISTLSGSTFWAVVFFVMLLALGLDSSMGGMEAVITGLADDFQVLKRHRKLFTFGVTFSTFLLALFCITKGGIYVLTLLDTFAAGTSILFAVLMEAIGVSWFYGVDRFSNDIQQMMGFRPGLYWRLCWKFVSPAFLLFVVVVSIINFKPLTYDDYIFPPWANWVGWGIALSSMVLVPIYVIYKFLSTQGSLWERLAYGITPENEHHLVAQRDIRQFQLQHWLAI

[4] = target: P2Y purinoceptor 1 (Rattus norvegicus) (UniProt P49651); test: P2Y/RAT Eurofins SafetyScreen44 (BI); settings: Compound concentration 10.0 uM
Sequence of P2Y purinoceptor 1 (Rattus norvegicus) (P49651 whole entry): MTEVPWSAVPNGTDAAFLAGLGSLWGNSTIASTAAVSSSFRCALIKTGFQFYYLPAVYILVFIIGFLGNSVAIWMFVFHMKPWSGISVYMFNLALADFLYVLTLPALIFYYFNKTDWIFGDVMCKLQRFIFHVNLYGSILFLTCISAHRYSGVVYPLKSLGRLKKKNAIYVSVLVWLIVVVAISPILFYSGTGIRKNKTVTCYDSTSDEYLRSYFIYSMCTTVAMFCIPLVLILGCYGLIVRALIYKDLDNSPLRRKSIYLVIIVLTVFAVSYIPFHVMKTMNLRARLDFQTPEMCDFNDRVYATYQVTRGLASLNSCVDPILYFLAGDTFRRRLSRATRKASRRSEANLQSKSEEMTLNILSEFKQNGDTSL

[5] = target: Platelet-activating factor receptor (Homo sapiens) (UniProt P25105); test: PAF/H Eurofins SafetyScreen44 (BI); settings: Compound concentration 10.0 uM
[6] = target: Estrogen receptor (Homo sapiens) (UniProt P03372); test: ERALPHA/H Eurofins SafetyScreen44 (BI); settings: Compound concentration 10.0 uM
[7] = target: Sodium-dependent dopamine transporter (Homo sapiens) (UniProt Q01959); test: DATRANS/H Eurofins SafetyScreen44 (BI); settings: Compound concentration 10.0 uM
[8] = target: Peroxisome proliferator-activated receptor alpha (Homo sapiens) (UniProt Q07869); test: PPAR_ALPHA Eurofins SafetyScreen44 (BI); settings: filed as agonist, Compound concentration 10.0 uM
Sequence of Peroxisome proliferator-activated receptor alpha (Homo sapiens) (Q07869 whole entry): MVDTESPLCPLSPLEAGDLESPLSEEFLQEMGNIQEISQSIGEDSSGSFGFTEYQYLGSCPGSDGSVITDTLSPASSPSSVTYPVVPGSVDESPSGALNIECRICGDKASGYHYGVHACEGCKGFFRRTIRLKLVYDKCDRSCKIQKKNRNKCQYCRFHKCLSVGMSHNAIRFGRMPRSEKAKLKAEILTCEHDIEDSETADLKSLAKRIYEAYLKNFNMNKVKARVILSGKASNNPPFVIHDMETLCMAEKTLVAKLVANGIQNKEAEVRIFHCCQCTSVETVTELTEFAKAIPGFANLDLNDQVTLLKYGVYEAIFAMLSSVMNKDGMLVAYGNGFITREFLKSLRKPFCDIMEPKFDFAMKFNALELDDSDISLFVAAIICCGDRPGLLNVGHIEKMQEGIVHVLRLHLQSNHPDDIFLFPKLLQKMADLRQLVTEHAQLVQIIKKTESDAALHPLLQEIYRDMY

[9] = target: Acetylcholine receptor subunit alpha (Homo sapiens) (UniProt P02708); test: NACH/H Eurofins SafetyScreen44 (BI); settings: Compound concentration 10.0 uM
Sequence of Acetylcholine receptor subunit alpha (Homo sapiens) (P02708 whole entry): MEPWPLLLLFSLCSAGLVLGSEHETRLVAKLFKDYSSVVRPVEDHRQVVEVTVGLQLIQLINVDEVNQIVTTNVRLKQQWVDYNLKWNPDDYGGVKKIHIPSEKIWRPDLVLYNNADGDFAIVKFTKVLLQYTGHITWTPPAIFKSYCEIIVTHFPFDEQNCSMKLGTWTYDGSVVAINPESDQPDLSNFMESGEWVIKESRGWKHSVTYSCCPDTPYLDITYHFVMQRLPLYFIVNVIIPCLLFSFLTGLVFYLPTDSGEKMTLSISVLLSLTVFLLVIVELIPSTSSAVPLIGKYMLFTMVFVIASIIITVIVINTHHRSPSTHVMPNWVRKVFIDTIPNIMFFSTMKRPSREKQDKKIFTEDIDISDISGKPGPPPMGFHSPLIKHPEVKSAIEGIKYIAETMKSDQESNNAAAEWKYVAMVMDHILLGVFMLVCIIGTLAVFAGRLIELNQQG

[10] = target: Substance-P receptor (Homo sapiens) (UniProt P25103); test: NK1/HU Eurofins SafetyScreen44 (BI); settings: Compound concentration 10.0 uM
Sequence of Substance-P receptor (Homo sapiens) (P25103 whole entry): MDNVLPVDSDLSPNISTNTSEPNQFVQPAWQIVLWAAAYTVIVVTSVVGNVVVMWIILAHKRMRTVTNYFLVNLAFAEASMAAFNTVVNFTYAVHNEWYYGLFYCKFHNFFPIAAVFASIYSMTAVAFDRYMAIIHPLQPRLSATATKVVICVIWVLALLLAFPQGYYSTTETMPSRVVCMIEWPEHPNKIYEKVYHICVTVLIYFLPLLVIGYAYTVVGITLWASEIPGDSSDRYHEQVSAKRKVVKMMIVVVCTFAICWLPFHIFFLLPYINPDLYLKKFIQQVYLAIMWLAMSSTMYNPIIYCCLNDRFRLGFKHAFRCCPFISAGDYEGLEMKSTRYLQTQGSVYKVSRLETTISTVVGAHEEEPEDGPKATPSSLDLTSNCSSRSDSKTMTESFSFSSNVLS

[11] = target: T1, Muscarinic acetylcholine receptor M2 (Homo sapiens) (UniProt P08172); settings: Compound concentration 10.0 uM
T1 sequence (whole entry): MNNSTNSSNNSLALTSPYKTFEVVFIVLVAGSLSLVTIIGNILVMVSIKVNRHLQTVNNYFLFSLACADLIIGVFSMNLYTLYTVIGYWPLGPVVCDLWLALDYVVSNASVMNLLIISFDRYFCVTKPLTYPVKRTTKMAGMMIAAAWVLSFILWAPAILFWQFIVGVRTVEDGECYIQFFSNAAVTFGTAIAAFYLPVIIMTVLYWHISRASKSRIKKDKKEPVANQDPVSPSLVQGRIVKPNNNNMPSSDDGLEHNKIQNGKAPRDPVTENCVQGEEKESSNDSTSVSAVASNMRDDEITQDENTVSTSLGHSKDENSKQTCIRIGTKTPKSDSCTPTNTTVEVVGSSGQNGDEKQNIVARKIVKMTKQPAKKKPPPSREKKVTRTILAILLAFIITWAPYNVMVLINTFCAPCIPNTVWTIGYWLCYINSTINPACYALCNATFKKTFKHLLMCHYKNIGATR

[12] = target: 5-hydroxytryptamine receptor 2B (Homo sapiens) (UniProt P41595); settings: Compound concentration 10.0 uM
Sequence of 5-hydroxytryptamine receptor 2B (Homo sapiens) (P41595 whole entry): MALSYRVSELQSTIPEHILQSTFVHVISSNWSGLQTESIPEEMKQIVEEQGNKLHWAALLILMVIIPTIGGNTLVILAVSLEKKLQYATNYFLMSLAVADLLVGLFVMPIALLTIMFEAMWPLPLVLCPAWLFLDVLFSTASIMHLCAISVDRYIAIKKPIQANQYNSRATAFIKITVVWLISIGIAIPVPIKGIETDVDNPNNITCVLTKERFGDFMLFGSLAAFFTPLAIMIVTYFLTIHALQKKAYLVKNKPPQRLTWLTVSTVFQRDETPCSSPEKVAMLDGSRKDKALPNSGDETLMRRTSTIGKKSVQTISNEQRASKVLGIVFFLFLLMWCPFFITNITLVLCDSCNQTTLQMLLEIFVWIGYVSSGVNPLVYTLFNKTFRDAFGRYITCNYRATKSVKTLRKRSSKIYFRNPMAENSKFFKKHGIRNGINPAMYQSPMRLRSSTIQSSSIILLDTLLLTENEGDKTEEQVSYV

[13] = target: Sigma non-opioid intracellular receptor 1 (Homo sapiens) (UniProt Q99720); settings: Compound concentration 10.0 uM
Sequence of Sigma non-opioid intracellular receptor 1 (Homo sapiens) (Q99720 whole entry): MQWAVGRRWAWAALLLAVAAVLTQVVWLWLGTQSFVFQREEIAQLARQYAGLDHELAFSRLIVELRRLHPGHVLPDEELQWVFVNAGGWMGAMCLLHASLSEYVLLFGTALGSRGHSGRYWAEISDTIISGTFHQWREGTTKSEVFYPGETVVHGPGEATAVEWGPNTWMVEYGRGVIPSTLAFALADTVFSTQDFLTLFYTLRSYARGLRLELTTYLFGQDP

[14] = target: Glutamate receptor ionotropic, NMDA 1 (Rattus norvegicus) (UniProt P35439); test: NMDAGLSI/RA Eurofins SafetyScreen44 (BI); settings: Compound concentration 10.0 uM
[15] = target: T2, Alpha-2B adrenergic receptor (Homo sapiens) (UniProt P18089); settings: Compound concentration 10.0 uM
T2 sequence (whole entry): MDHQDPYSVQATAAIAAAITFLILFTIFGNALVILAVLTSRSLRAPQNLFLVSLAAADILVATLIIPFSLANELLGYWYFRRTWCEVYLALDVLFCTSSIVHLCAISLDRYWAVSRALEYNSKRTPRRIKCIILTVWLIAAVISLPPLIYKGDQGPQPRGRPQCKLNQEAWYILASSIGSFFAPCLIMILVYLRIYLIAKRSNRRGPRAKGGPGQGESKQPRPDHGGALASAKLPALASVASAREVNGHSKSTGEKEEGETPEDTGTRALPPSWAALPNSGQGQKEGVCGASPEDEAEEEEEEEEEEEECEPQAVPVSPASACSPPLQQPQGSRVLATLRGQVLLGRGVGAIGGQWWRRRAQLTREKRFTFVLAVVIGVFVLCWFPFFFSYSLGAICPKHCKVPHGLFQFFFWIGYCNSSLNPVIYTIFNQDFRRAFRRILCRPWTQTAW

[16] = target: Nicotinic acetylcholine receptor alpha-1/beta-1 (Homo sapiens) (UniProt P02708+P11230); test: NACH_BS_N/H Eurofins SafetyScreen44 (BI); format: protein-complex assay; settings: Compound concentration 10.0 uM
[17] = target: 5-hydroxytryptamine receptor 2A (Homo sapiens) (UniProt P28223); test: 5HT2AH_AGON Eurofins SafetyScreen44 (BI); settings: filed as agonist, Compound concentration 10.0 uM
Sequence of 5-hydroxytryptamine receptor 2A (Homo sapiens) (P28223 whole entry): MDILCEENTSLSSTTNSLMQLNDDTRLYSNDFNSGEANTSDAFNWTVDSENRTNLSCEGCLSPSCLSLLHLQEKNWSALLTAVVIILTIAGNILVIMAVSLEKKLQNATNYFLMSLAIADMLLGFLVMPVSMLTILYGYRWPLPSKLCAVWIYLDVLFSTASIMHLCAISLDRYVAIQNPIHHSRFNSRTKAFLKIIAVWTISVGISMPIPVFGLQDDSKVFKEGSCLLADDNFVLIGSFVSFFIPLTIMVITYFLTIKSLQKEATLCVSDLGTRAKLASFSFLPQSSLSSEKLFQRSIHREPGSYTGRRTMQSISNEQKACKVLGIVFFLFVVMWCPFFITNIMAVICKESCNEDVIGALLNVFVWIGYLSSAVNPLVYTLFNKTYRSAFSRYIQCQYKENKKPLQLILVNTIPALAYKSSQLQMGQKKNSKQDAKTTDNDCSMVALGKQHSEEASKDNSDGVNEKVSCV

[18] = target: Histamine H1 receptor (Homo sapiens) (UniProt P35367); test: H1/PYRIL/HS Eurofins SafetyScreen44 (BI); settings: Compound concentration 10.0 uM
Sequence of Histamine H1 receptor (Homo sapiens) (P35367 whole entry): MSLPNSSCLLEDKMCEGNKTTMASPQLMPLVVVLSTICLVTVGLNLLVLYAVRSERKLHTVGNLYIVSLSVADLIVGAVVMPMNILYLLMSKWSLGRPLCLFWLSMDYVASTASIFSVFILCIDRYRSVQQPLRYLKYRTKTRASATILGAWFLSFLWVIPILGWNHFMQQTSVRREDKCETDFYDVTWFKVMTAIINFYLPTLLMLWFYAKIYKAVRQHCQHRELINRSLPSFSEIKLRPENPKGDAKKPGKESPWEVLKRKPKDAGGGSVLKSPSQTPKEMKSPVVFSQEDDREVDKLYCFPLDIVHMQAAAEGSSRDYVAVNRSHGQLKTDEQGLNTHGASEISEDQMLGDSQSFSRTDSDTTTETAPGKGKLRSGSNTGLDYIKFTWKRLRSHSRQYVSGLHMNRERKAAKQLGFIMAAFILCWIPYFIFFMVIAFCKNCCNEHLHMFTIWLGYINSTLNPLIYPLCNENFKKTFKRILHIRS

[19] = target: Potassium voltage-gated channel subfamily V member 1 (Rattus norvegicus) (UniProt P97557); test: K+/VOLT/RA Eurofins SafetyScreen44 (BI); settings: Compound concentration 10.0 uM
[20] = target: Kappa-type opioid receptor (Homo sapiens) (UniProt P41145); test: KAPPA(KOP)_HU Eurofins SafetyScreen44 (BI); settings: Compound concentration 10.0 uM
[21] = target: Beta-2 adrenergic receptor (Homo sapiens) (UniProt P07550); test: BETA2/HUM Eurofins SafetyScreen44 (BI); settings: filed as antagonist, Compound concentration 10.0 uM
[22] = target: T3, Alpha-1A adrenergic receptor (Homo sapiens) (UniProt P35348); test: ALPHA1AH_ANTAG Eurofins SafetyScreen44 (BI); settings: filed as antagonist, Compound concentration 10.0 uM
T3 sequence (whole entry): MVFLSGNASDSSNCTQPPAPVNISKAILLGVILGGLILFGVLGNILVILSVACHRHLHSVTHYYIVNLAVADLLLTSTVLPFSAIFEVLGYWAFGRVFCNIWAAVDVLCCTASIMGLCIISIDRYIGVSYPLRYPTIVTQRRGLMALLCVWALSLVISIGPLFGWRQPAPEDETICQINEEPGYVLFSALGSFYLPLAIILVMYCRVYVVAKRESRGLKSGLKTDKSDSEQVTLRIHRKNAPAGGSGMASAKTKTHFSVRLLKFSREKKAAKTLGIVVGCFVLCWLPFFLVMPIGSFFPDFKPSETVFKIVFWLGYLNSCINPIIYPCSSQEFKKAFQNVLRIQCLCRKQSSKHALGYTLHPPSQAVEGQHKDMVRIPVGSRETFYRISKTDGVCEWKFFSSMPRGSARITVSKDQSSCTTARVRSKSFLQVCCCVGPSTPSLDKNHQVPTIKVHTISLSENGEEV

[23] = target: Angiotensin-converting enzyme (Homo sapiens) (UniProt P12821); test: ACE(HU_AMTCH400) Eurofins SafetyScreen44 (BI); settings: Compound concentration 10.0 uM
[24] = target: Beta-1 adrenergic receptor (Homo sapiens) (UniProt P08588); test: BETA1/HUM Eurofins SafetyScreen44 (BI); settings: Compound concentration 10.0 uM
Sequence of Beta-1 adrenergic receptor (Homo sapiens) (P08588 whole entry, looked up): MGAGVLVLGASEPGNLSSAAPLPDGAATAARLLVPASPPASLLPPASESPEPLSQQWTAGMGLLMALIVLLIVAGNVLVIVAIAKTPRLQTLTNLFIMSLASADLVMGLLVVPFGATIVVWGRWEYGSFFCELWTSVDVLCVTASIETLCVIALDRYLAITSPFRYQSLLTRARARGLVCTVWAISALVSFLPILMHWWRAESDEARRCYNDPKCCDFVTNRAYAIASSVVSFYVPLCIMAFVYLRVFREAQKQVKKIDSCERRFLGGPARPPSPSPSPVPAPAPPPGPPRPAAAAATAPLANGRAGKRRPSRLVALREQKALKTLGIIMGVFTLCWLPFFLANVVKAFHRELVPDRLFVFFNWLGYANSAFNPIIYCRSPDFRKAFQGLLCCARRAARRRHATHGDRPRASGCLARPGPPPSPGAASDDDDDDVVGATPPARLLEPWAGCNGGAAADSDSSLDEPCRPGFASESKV

[25] = target: Neuronal acetylcholine receptor; alpha4/beta2 (Homo sapiens) (UniProt P17787+P43681); test: N_NEURO_A4B2 Eurofins SafetyScreen44 (BI); format: protein-complex assay; settings: filed as agonist, Compound concentration 10.0 uM
[26] = target: Adenosine receptor A2a (Homo sapiens) (UniProt P29274); test: A2A/H Eurofins SafetyScreen44 (BI); settings: filed as antagonist, Compound concentration 10.0 uM

Sequence of Cannabinoid receptor 1 (Homo sapiens) (P21554 whole entry): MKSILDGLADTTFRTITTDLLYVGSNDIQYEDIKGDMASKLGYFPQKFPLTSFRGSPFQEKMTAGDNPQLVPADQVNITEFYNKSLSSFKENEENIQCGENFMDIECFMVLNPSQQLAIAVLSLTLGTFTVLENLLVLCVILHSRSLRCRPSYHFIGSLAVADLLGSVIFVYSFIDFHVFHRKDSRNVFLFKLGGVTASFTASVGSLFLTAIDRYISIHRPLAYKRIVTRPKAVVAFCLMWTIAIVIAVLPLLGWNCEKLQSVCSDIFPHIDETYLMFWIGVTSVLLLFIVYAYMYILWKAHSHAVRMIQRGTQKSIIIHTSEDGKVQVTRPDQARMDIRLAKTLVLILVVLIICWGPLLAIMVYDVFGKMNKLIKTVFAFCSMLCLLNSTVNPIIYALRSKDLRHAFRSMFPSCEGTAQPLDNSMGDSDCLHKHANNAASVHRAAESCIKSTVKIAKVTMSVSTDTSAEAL

inhibition [3]: 9.38%
inhibition [11]: -3.23%
inhibition [12]: 3.41%
inhibition [13]: 25.4%
inhibition [15]: -1.99%
SMILES: Cc1cc(OCCC(C)(C)O)cc(C)c1-c1ccc(F)c2c1CC[C@H]2Oc1ccc2c(c1)OC[C@H]2CC(=O)O
residual activity [1]: 89%
residual activity [2]: 100%
residual activity [4]: 87%
residual activity [5]: 97%
residual activity [6]: 103%
residual activity [7]: 68%
residual activity [8]: 119%
residual activity [9]: 115%
residual activity [10]: 113%
residual activity [14]: 86%
residual activity [16]: 84%

inhibition [3]: 11.1%
inhibition [11]: -3.61%
inhibition [13]: 15.2%
inhibition [15]: 3.95%
SMILES: COCCCS(=O)(=O)c1cc(C)c(-c2ccc(F)c3c2CC[C@H]3Oc2ccc3c(c2)OC[C@H]3CC(=O)O)c(C)c1
residual activity [17]: 101%
residual activity [18]: 87%
residual activity [19]: 108%
residual activity [20]: 96%
residual activity [21]: 99%
residual activity [22]: 95%
residual activity [23]: 99%
residual activity [24]: 88%
residual activity [25]: 112%
residual activity [26]: 102%
